Like-named read-outs stand apart in the source and are kept apart here.
Legend:
[1] = cited from earlier work
[2] = tested on: premature ejaculation (PE); assay: Case reports: intravaginal ejaculation latency time (IELT) in PE patients; assay type: in vivo, human
[3] = Case reports: tolerability and side effects in PE patients; assay type: in vivo, human
[4] = cited from earlier work; for peak plasma concentration: healthy volunteers
[5] = tested on: premature ejaculation (PE); conditions: cited from earlier work
aged male rats = conditions: cited from earlier work
male rats = male rats (Shekar et al. 2017); cited from earlier work
seminal vesicle = conditions: electrical nerve stimulation (Hsieh et al. 1999); cited from earlier work
erectile dysfunction = assay: Case reports: erection / ability to achieve intercourse; assay type: in vivo, human; conditions: Case Report 6; 12 mg yohimbine daily alone, in two doses
Text: A patient complained about erectile dysfunction and PE.
A patient complained about primary PE and about psychogenic erectile dysfunction.

[6] = metabolite after oral clomipramine

SMILES: COC(=O)[C@@H]1[C@H]2C[C@H]3c4[nH]c5cc(O)ccc5c4CCN3C[C@@H]2CC[C@@H]1O [11-hydroxy-yohimbine]
- elimination half-life of active metabolite ([1]; single-dose yohimbine studies): 6 h

SMILES: CN(C)CCCN1c2ccccc2CCc2ccc(Cl)cc21 [clomipramine, 3-(3-chloro-10,11-dihydro-5H-dibenzo[b,f]azepin-5-yl)-N,N-dimethylpropan-1-amine]
- IELT after treatment ([2]; Case Report 5, 30 mg clomipramine alone 6 hours before sexual intercourse, before: 1 minute): 6 min
- side effects reported ([3]; Case Report 5, 30 mg clomipramine alone 6 hours before sexual intercourse): dizziness, dyspepsia and constipation
- peak plasma concentration ([4]; single oral dose 50 mg): 28.8 ± 11.2 ng/mL
- peak plasma concentration ([4]; single oral dose 100 mg): 70 to 140 ng/mL
- time to climax in premature ejaculators ([5]; 50 mg clomipramine): more than 8 minutes
- latency to ejaculation ([5]; 25 milligrams clomipramine 12 to 24 hours before sexual activity, from about 1.5 to 2 minutes): about 8 minutes

SMILES: CNCCCN1c2ccccc2CCc2ccc(Cl)cc21 [desmethylclomipramine]
- peak plasma concentration of metabolite ([4]; after single oral dose of 50 mg clomipramine): 5.0 ± 1.4 ng/mL
- half-life [4, 6]: 36 h
- half-life, upper limit in brackets [4, 6]: up to 9 hours

SMILES: Fc1ccc([C@@H]2CCNC[C@H]2COc2ccc3c(c2)OCO3)cc1 [paroxetine]
- outcome of earlier PE treatment ([2]; Case Report 1, 20 to 40 mg daily for 6 months): unsuccessfully

SMILES: CN[C@H]1CC[C@@H](c2ccc(Cl)c(Cl)c2)c2ccccc21 [sertraline]
- outcome of earlier PE treatment ([2]; Case Report 2, 50-100 mg for 16 weeks): unsuccessfully

SMILES: COC(=O)[C@@H]1[C@H]2C[C@H]3c4[nH]c5ccccc5c4CCN3C[C@@H]2CC[C@@H]1O [yohimbine, 17α-hydroxy-yohimban-16α-carboxylic acid methyl ester]
- time of intercourse ([2]; Case Report 6, 12 mg yohimbine daily alone): no amelioration
- effect on erectile dysfunction (aged male rats): improves erectile dysfunction
- antagonism of clomipramine-induced sexual dysfunction (male rats): failed to antagonize
- side effects reported ([3]; Case Report 6, 12 mg yohimbine daily alone, from the second day of treatment): diarrhoea
- elimination half-life ([1]; single-dose studies, oral or intravenous): < 1 h
- effect on seminal vesicle contractile response (seminal vesicle): can suppress
- erections (erectile dysfunction): improved erections

From patent US12186325B2, “Treatment and prevention of premature ejaculation (PE)” (SEROJAC PME Handels GmbH, priority 2018, dated 2025)
